PMC5830399, “Aggregating sequences that occur in many proteins constitute weak spots of bacterial proteostasis” (Nature Communications, 2018)
Converted amounts (≈) assume the structure as drawn. Read-outs that look alike come from different tables or passages of the source. Peptide text beside a SMILES is read from it.

Tests used:
E. coli K-12 BW25113 = format: cell-based, Escherichia coli
Procedure: (§1) If the bactericidal effect of P2 is indeed mediated by a loss of protein homeostasis, the cellular chaperone machinery would be expected to counteract or limit the effect of the peptide. […] To ensure that this effect was not due to the reduced overall viability of the dnaK deletion strain, we also tested the MIC value at 30 °C and obtained the same result (MIC = 6 μg/mL). This confirms that the direct inhibition of chaperones and proteases is not the principal mechanism of action of P2. […] The deletion strains with the strongest effect largely matched those found in the IBs by MS, including those of the cotranslationally acting chaperones TF (tig), dnaK (Hsp70 family), and its cochaperone dnaJ, as well as the small Hsps hchA (Hsp31), hslO (Hsp33), and ipbA (α-crystallin family). The disaggregase clpB and the aggregation-controlling protease lon also had strong effects.
(§2) The MICs of active peptides were determined via the Broth microdilution assay according to the EUCAST guideline, which was performed in 96-well polystyrene flat bottom microtiter plates (BD Biosciences). Briefly, a single colony was inoculated into 5 mL LB medium and grown to the end-exponential growth phase in a shaking incubator at 37 °C. Cultures were subsequently diluted to an OD600 (optical density) of 0.002 ([…]) in fresh LB medium. One hundred microliters of LB medium with different concentration of peptides ranging from 100 to 0.75 µg/mL were serially diluted to the sterile 96-well plate (at least three wells in each plate). Afterwards, 100 µL of the diluted bacteria were pipetted into 96-well plates containing different concentration of peptides. In each plate, the grown bacteria with the maximum concentration of carrier and medium were considered as positive and negative controls, respectively. Thereafter, 96-well plates were statically incubated overnight at 37 °C to allow bacterial growth. OD was measured at 590 nm for 1 s using a multipurpose ultraviolet–visible plate reader, and the absorbance of the growth bacteria was measured using a Perkin Elmer spectrophotometer (1420 Multilabel Counter Victor 3).
Knockout chaperon strains were purchased from Dharmacon E. coli Keio knockout collection, which contains a set of single-gene deletion mutants for chaperone E. coli K-12 genes. Each deleted gene has been replaced with a kanamycin (30 μg/ mL) resistance cassette.

E. coli BL21 = format: cell-based, Escherichia coli
Procedure: as §1, §2
Chaperone co-expression plasmids were purchased from Takara set (catalog# 3340), which consists of five different plasmids that contain chaperone plasmids developed by HSP Research Institute Inc. Plasmids were transformed into competent E. coli BL21. The co-expression chaperone strains are chloramphenicol selective of chaperone plasmid (20 μg/mL), and chaperone inducer depending on the chaperone plasmid used. pG-KJE8 (DnaK-dnaJ-grpE araB groES-groEL) induced by L-arabinose (0.5 mg/mL), tetracycline (1–5 ng/mL), pGro7 (groES-groEL) induced by L-arabinose (0.5 mg/mL), pKJE7 (dnaK-dnaJ-grpE) induced by L-arabinose (0.5 mg/mL), pG-Tf2 (groES-groEL-tig) induced by tetracycline (1–5 ng/mL), and pTf16 (tig) induced by L-arabinose (0.5 mg/mL).

E. coli O157:H7 = format: cell-based, Escherichia coli
Procedure: as §2

human erythrocytes = assay: In vitro hemolytic activity test; format: cell-based; conditions: 1 h 37 °C
Procedure: The hemolytic activities of peptides were determined by hemolysis against human erythrocytes. Pooled fresh blood was obtained from healthy volunteers (Red Cross Flanders) and erythrocytes were collected by centrifugation 1,000 × g for 5 min (anticoagulated by EDTAK). The pellet was washed three times with phosphate-buffered saline (PBS) and was diluted to a concentration of 8% in PBS. One hundred microliters of 8% red blood cells solution was mixed with 100 µL of serial dilutions of peptides in PBS buffer in 96-well plates (BD Biosciences). The reaction mixtures were incubated for 1 h at 37 °C. Thereupon, the plate was centrifuged for 10 min at 1,000 × g and 100 µL of supernatant was transferred to a sterilized 96-well plate (BD Biosciences, flat bottom). The release of hemoglobin was determined by measuring the absorbance of the supernatant at 405 nm. […] Erythrocytes in 1% Triton and maximum used concentration of vehicle were used as the control of 100 and 0% hemolysis, respectively.

E. coli O157 = format: cell-based, Escherichia coli; conditions: HPLC-purified peptide
Text: In order to investigate whether APR redundancy does result in proteostatic collapse, we selected resynthesized and high-performance liquid chromatography (HPLC)-purified four positive peptides from the screen, P2, P5, P14, and P105, as well as three negative peptides, P3, P4, and P11, and confirmed their MIC and minimum bactericidal concentration (MBC) values (Table 1). […] These IBs, which are also called large polar aggregates, could be stained with pentameric formyl thiophene acetic acid (pFTAA, Fig. 1j and supplementary Fig. 3), an extensively characterized amyloid-specific dye[20]–[22], which specifically binds to amyloid-like aggregates as well as disease-associated protein IBs[22]. This IB-staining pattern could be observed for all bactericidal peptides, but not for any of the other peptides, although some other pFTAA-positive structures could be discerned (Supplementary Fig. 3). We confirmed the cross-β-structure content of IB using thioflavin-T staining and correlative atomic force microscopy nanoimaging and Fourier transform infrared spectroscopy (Supplementary Note 2 and Supplementary Fig. 4).

Swiss mice = assay: In vivo toxicity test; set-up: species or system mouse; conditions: Swiss female mice, 30 mg/kg IP once a day for 18 days (Supplementary Note 8)
Procedure: The procedures used in the assays were approved by the local Animal Ethics Committee and conform to international standards of animal welfare (Approval P067/2015 of the Ethical Committee of KULeuven). A safe concentration of peptides of […] was used for this experiment.
Briefly, 5–6-week-old Swiss females were divided into […] (six animals per group) and administered 30 mg/kg of P2 (group A) or vehicle (physiological water pH 7.5) (group B) once a day for 18 days via IP injection. During the treatment period, the clinical, physiological, and behavioral parameters, including body weight, food and water consumption, body condition score, home cage activity, and locomotion were constantly monitored and recorded.
Three days after the last administration, animals were anesthetized and blood was collected using a standard retro-orbital puncture from each animal. Next, the mice sacrificed and underwent complete necropsy with gross examination and organ weights. The organs (heart, liver, spleen, kidney, bone marrow, brain, lung) were sampled and immersed in fixative in 4% paraformaldehyde. […] Five-micrometer-thick sections taken from these blocks (Thermo Scientific Microm HM355S microtome) were then stained with hematoxylin and eosin (Leica ST5010 Autostainer XL) and evaluated under a Leica DM 2500 light microscope by a board-certified veterinary pathologist. […]

Q: `CC(C)C[C@H](NC(=O)CNC(=O)[C@H](CCCNC(=N)N)NC(=O)[C@@H]1CCCN1C(=O)[C@H](CCCNC(=N)N)NC(=O)[C@H](CCCNC(=N)N)NC(=O)[C@@H](NC(=O)[C@H](CC(C)C)NC(=O)[C@H](C)NC(=O)[C@H](CC(C)C)NC(=O)CNC(=O)[C@H](CC(C)C)NC(=O)CNC(=O)[C@@H](N)CCCNC(=N)N)C(C)C)C(=O)NCC(=O)N[C@@H](CC(C)C)C(=O)N[C@@H](C)C(=O)N[C@@H](CC(C)C)C(=O)N[C@H](C(=O)N[C@@H](CCCNC(=N)N)C(=O)N[C@@H](CCCNC(=N)N)C(=O)O)C(C)C` [P2] (H-RGLGLALVRRPRGLGLALVRR-OH) was tested. Which MIC (E. coli K-12 BW25113; KEIO WT) did it give?
A: 12 µg/mL (≈ 5.22 µM)

Q: What about the MIC (E. coli K-12 BW25113; dnaK deletion strain, tested at 30 °C) of the same compound?
A: 6 µg/mL (≈ 2.61 µM)

Q: And the MIC (E. coli K-12 BW25113; gene deletion ∆ clpA)?
A: 12 µg/mL (≈ 5.22 µM)

Q: What about the MIC (E. coli K-12 BW25113; gene deletion ∆ clpB) of the same compound?
A: 12 µg/mL (≈ 5.22 µM)

Q: And the MIC (E. coli K-12 BW25113; gene deletion ∆ clpP)?
A: 12 µg/mL (≈ 5.22 µM)

Q: What about the MIC (E. coli K-12 BW25113; gene deletion ∆ clpS) of the same compound?
A: 12 µg/mL (≈ 5.22 µM)

Q: What about the MIC (E. coli K-12 BW25113; gene deletion ∆ clpX) of the same compound?
A: 12 µg/mL (≈ 5.22 µM)

Q: What about the MIC (E. coli K-12 BW25113; gene deletion ∆ dnaJ) of the same compound?
A: 12 µg/mL (≈ 5.22 µM)

Q: What about the MIC (E. coli K-12 BW25113; gene deletion ∆ dnaK) of the same compound?
A: 6 µg/mL (≈ 2.61 µM)

Q: And the MIC (E. coli K-12 BW25113; gene deletion ∆ groL)?
A: 12 µg/mL (≈ 5.22 µM)

Q: And the MIC (E. coli K-12 BW25113; gene deletion ∆ hchA)?
A: 6 µg/mL (≈ 2.61 µM)

Q: What about the MIC (E. coli K-12 BW25113; gene deletion ∆ hslO) of the same compound?
A: 12 µg/mL (≈ 5.22 µM)

Q: What about the MIC (E. coli K-12 BW25113; gene deletion ∆ htpG) of the same compound?
A: 12 µg/mL (≈ 5.22 µM)

Q: What about the MIC (E. coli K-12 BW25113; gene deletion ∆ ibpA) of the same compound?
A: 12 µg/mL (≈ 5.22 µM)

Q: And the MIC (E. coli K-12 BW25113; gene deletion ∆ ibpB)?
A: 12 µg/mL (≈ 5.22 µM)

Q: And the MIC (E. coli K-12 BW25113; gene deletion ∆ lon)?
A: 12 µg/mL (≈ 5.22 µM)

Q: And the MIC (E. coli K-12 BW25113; gene deletion ∆ sulA)?
A: 12 µg/mL (≈ 5.22 µM)

Q: What about the MIC (E. coli K-12 BW25113; gene deletion ∆ tig) of the same compound?
A: 12 µg/mL (≈ 5.22 µM)

Q: And the MIC (E. coli BL21; BL21, plasmid pG-KJE8, overexpressed dnaK-dnaJ-grpE groES-groEL)?
A: 25 µg/mL (≈ 10.9 µM)

Q: What about the MIC (E. coli BL21; BL21, plasmid pG-Tf2, overexpressed groES-groEL-tig) of the same compound?
A: 25 µg/mL (≈ 10.9 µM)

Q: What about the MIC (E. coli BL21; BL21, plasmid pGro7, overexpressed groES-groEL) of the same compound?
A: 25 µg/mL (≈ 10.9 µM)

Q: And the MIC (E. coli BL21; BL21, plasmid pKJE7, overexpressed dnaK-dnaJ-grpE)?
A: 25 µg/mL (≈ 10.9 µM)

Q: What about the MIC (E. coli BL21; BL21, plasmid pTf16, overexpressed tig) of the same compound?
A: 25 µg/mL (≈ 10.9 µM)

Q: What about the MIC (E. coli BL21; BL21 wt, no plasmid) of the same compound?
A: 25 µg/mL (≈ 10.9 µM)

Q: What about the MIC (E. coli O157:H7; E. coli O157(:H7), HPLC-purified peptide, broth microdilution (EUCAST), LB, overnight 37 °C, OD 590 nm) of the same compound?
A: 6 µg/mL (≈ 2.61 µM)

Q: What about the “IC50, concentration at which bacterial growth is 50% inhibited” value (E. coli O157:H7; E. coli O157:H7) of the same compound?
A: 1.5 µg/mL (≈ 0.652 µM)

Q: What about the “LC50, concentration inducing 50% lysis of human erythrocytes” value (human erythrocytes) of the same compound?
A: 1,100 μg/mL

Q: What about the MBC (E. coli O157) of the same compound?
A: 6 µg/mL (≈ 2.61 µM)

Q: And the tolerability in mice (Swiss mice)?
A: tolerated P2 treatments well
